Measurements as given in the NIST ThermoML archive (doi:10.1021/acs.jced.7b00176).

What was measured:
[1] = Liquid, Vibrating tube method
[2] = xn = mol fraction of the nth substance listed; conditions: Liquid, Vibrating tube method, x1 = 1

COCCOCCOC [2,5,8-trioxanonane]
[1]
Conditions	mass density [kg/m3]
283.67 K, 40000 kPa	978.49
283.67 K, 60000 kPa	989.12
283.67 K, 80000 kPa	998.75
283.67 K, 100000 kPa	1007.71
283.68 K, 10000 kPa	960.29
283.68 K, 20000 kPa	966.68
283.68 K, 30000 kPa	972.8
283.69 K, 100 kPa	953.48
283.69 K, 1000 kPa	954.15
283.69 K, 5000 kPa	956.94
303.47 K, 100 kPa	933.69
303.47 K, 1000 kPa	934.43
303.48 K, 5000 kPa	937.55
303.48 K, 10000 kPa	941.31
303.49 K, 20000 kPa	948.42
303.49 K, 30000 kPa	955.17
303.49 K, 40000 kPa	961.41
303.49 K, 60000 kPa	973.02
303.5 K, 80000 kPa	983.33
303.5 K, 100000 kPa	992.97
322.62 K, 100 kPa	914.41
322.62 K, 1000 kPa	915.3
322.62 K, 5000 kPa	918.77
322.62 K, 10000 kPa	923.02
322.62 K, 20000 kPa	930.99
322.62 K, 30000 kPa	938.31
322.62 K, 40000 kPa	945.16
322.62 K, 60000 kPa	957.74
322.62 K, 80000 kPa	968.98
322.62 K, 100000 kPa	979.2
342.49 K, 100 kPa	894.03
342.49 K, 1000 kPa	894.98
342.49 K, 5000 kPa	898.96
342.5 K, 10000 kPa	903.66
342.5 K, 20000 kPa	912.57
342.51 K, 30000 kPa	920.68
342.51 K, 40000 kPa	928.18
342.51 K, 60000 kPa	941.77
342.51 K, 80000 kPa	953.82
342.52 K, 100000 kPa	964.68
362.51 K, 100 kPa	873.45
362.51 K, 1000 kPa	874.46
362.51 K, 5000 kPa	879.02
362.52 K, 10000 kPa	884.41
362.52 K, 20000 kPa	894.33
362.52 K, 30000 kPa	903.29
362.52 K, 40000 kPa	911.53
362.53 K, 60000 kPa	926.3
362.53 K, 80000 kPa	939.26
362.53 K, 100000 kPa	950.89

CCCCO [butan-1-ol]
[1]
Conditions	mass density [kg/m3]
283.63 K, 80 kPa	817.19
283.63 K, 5000 kPa	820.7
283.64 K, 1000 kPa	817.88
283.64 K, 40000 kPa	842.03
283.64 K, 60000 kPa	852.39
283.64 K, 100000 kPa	870.33
283.65 K, 30000 kPa	836.43
283.65 K, 80000 kPa	861.72
283.66 K, 10000 kPa	824.01
283.66 K, 20000 kPa	830.39
303.45 K, 100 kPa	801.81
303.45 K, 1000 kPa	802.54
303.46 K, 5000 kPa	805.65
303.46 K, 10000 kPa	809.35
303.47 K, 20000 kPa	816.29
303.47 K, 30000 kPa	822.84
303.47 K, 40000 kPa	828.87
303.47 K, 60000 kPa	839.95
303.48 K, 80010 kPa	849.82
303.48 K, 100000 kPa	858.94
323.25 K, 1000 kPa	787.19
323.26 K, 100 kPa	786.36
323.26 K, 5000 kPa	790.63
323.27 K, 10000 kPa	794.68
323.27 K, 20000 kPa	802.33
323.27 K, 30000 kPa	809.41
323.28 K, 40000 kPa	816
323.28 K, 60000 kPa	827.77
323.28 K, 80000 kPa	838.31
323.28 K, 100000 kPa	847.65
343.03 K, 100 kPa	769.54
343.03 K, 1000 kPa	770.45
343.04 K, 5000 kPa	774.32
343.04 K, 10000 kPa	778.88
343.05 K, 20000 kPa	787.37
343.05 K, 30000 kPa	795.06
343.05 K, 40000 kPa	802.13
343.05 K, 60000 kPa	814.83
343.05 K, 80000 kPa	826.08
343.05 K, 100000 kPa	836.2
362.68 K, 100 kPa	752.67
362.68 K, 1000 kPa	753.64
362.68 K, 30000 kPa	781.04
362.69 K, 5000 kPa	758.03
362.69 K, 10000 kPa	763.16
362.69 K, 20000 kPa	772.56
362.7 K, 40000 kPa	788.67
362.7 K, 60000 kPa	802.36
362.71 K, 80000 kPa	814.44
362.71 K, 100000 kPa	825.18

CCCCO [butan-1-ol] + COCCOCCOC
[2]
Conditions	mass density [kg/m3]
283.63 K, 80 kPa	817.19
283.63 K, 5000 kPa	820.7
283.64 K, 1000 kPa	817.88
283.64 K, 40000 kPa	842.03
283.64 K, 60000 kPa	852.39
283.64 K, 100000 kPa	870.33
283.65 K, 30000 kPa	836.43
283.65 K, 80000 kPa	861.72
283.66 K, 10000 kPa	824.01
283.66 K, 20000 kPa	830.39
303.45 K, 100 kPa	801.81
303.45 K, 1000 kPa	802.54
303.46 K, 5000 kPa	805.65
303.46 K, 10000 kPa	809.35
303.47 K, 20000 kPa	816.29
303.47 K, 30000 kPa	822.84
303.47 K, 40000 kPa	828.87
303.47 K, 60000 kPa	839.95
303.48 K, 80010 kPa	849.82
303.48 K, 100000 kPa	858.94
323.25 K, 1000 kPa	787.19
323.26 K, 100 kPa	786.36
323.26 K, 5000 kPa	790.63
323.27 K, 10000 kPa	794.68
323.27 K, 20000 kPa	802.33
323.27 K, 30000 kPa	809.41
323.28 K, 40000 kPa	816
323.28 K, 60000 kPa	827.77
323.28 K, 80000 kPa	838.31
323.28 K, 100000 kPa	847.65
343.03 K, 100 kPa	769.54
343.03 K, 1000 kPa	770.45
343.04 K, 5000 kPa	774.32
343.04 K, 10000 kPa	778.88
343.05 K, 20000 kPa	787.37
343.05 K, 30000 kPa	795.06
343.05 K, 40000 kPa	802.13
343.05 K, 60000 kPa	814.83
343.05 K, 80000 kPa	826.08
343.05 K, 100000 kPa	836.2
362.68 K, 100 kPa	752.67
362.68 K, 1000 kPa	753.64
362.68 K, 30000 kPa	781.04
362.69 K, 5000 kPa	758.03
362.69 K, 10000 kPa	763.16
362.69 K, 20000 kPa	772.56
362.7 K, 40000 kPa	788.67
362.7 K, 60000 kPa	802.36
362.71 K, 80000 kPa	814.44
362.71 K, 100000 kPa	825.18
